In article PMC7394103 (Frontiers in Pharmacology, 2020):

Experiments:
[1] = tested on: MMP-1 secretion by SW982 cells; experiment: IL-1β-induced MMP-1 secretion by SW982 cells (ELISA); assay type: cell-based; details: Homo sapiens, 30 min compound, then 5 ng/ml IL-1β, 24 h, read-out: SW-982 MMP-1 IC50
Protocol: (§1) FLS, HUVEC, SW982, and THP-1 cells were plated in 96 well plates (10^4 to 10^5 cells/well) for 48 h before treatment. At 2 days post-confluency, the cells were serum-starved and washed twice (with the exception of THP-1 cell, which were not washed) with FBS-free medium prior to the addition of test compounds. The cells were incubated in the presence or absence of test compounds or DMSO (vehicle control) for 30 min at 37°C in a 5% CO2 atmosphere, IL-1β (5 ng/ml) was added, and the cells were incubated for an additional 24 h. Culture supernatants were collected and stored at –80°C. The levels of MMP-1 and MMP-3 were determined in culture supernatants using commercially available ELISA kits according to the manufacturer’s instructions (R&D System, Minneapolis, MN, USA). IL-6 levels were also determined in the supernatants using a human IL-6 ELISA kit (BD Biosciences, San Jose, CA, USA).

[2] = Cytotoxicity assay (CellTiter-Glo), HUVEC; assay type: cell-based; details: human, HUVECs; concentrations up to 50 µM; read-out: Cytotoxic effect HUVEC IC50
Protocol: Cytotoxicity was analyzed using a CellTiter-Glo Luminescent Cell Viability Assay Kit (Promega), according to the manufacturer’s protocol. Briefly, cells were cultured at a density of 10^4 to 10^5 cells/well with different concentrations of test compounds (final concentration of DMSO was 1%) for the indicated periods of time (2, 12, or 24 h) at 37°C and 5% CO2. Following treatment, substrate was added to the cells, and the samples were analyzed with a Fluoroscan Ascent FL microplate reader.

[3] = tested on: IL-6 secretion by monocytic THP-1 cells; experiment: IL-1β-induced IL-6 secretion by THP-1 cells (ELISA); assay type: cell-based; details: Homo sapiens, 30 min compound, then 5 ng/ml IL-1β, 24 h
Protocol: as §1

CIA in DBA1/J mice = experiment: Collagen-induced arthritis (CIA), clinical score and histopathology; assay type: in vivo; details: 30 mg/kg i.p. daily; for CIA joint histopathology: day 8 to 42, vs saline; for CIA symptoms (clinical score): day 8 to 42, vs vehicle
Protocol: DBA1/J male mice (6–8 weeks) were obtained from The Jackson Laboratories (Bar Harbor, ME, USA). All animal experiments were performed in accordance with National Institutes of Health guidelines and approved by the Montana State University Institutional Animal Care and Use Committee.
To induce CIA in DBA1/J mice, immunization-grade bovine Type II collagen (CII) (Chondrex, Redmond, WA, USA) was solubilized in 0.05 M acetic acid (2 mg/ml), and 100 μg of CII emulsified in complete Freund’s adjuvant containing 4 mg/ml Mycobacterium tuberculosis (Chondrex) were injected subcutaneously (s.c.) in the tail ([Kochetkova et al., 2010]).
Mice were scored using a scale of 0 to 3 for each limb, with a maximal total score of 12, as previously described ([Schepetkin et al., 2015]): 0, no signs of inflammation; 1, mild redness or swelling of single digits; 2, significant swelling of ankle or wrist with erythema; and 3, severe swelling and erythema of multiple joints.
At 44 days after CII injection (CIA) or 14 days after anti-CII antibody injection (CAIA), the mice were euthanized, and their hind limbs were collected and fixed in 10% neutral buffered formalin. The limbs were decalcified in 5% formic acid for 3 to 6 days, and the joints were embedded in paraffin. Eight 8-μm sections were cut using a sagittal projection with 40 µm spacing of the cuts. Hematoxylin and eosin (H&E) and toluidine blue (TB) staining were performed for each sample.
H&E histopathological scores for the joints were determined by using a graded scale ([Schramm et al., 2004]), separately for cartilage destruction, pannus formation, and synovial cells changes. For cartilage destruction, the scale was: 0—normal, superficial zone is smooth; 1—superficial fibrillations, some loss of surface lamina; 2—vertical clefts/erosion to the calcified cartilage up to 25% of the surface; 3—vertical clefts/erosion to the calcified cartilage more than 25% of the surface, severe chondrocytes, and cartilage matrix loss with new bone tissue substitution, bone destruction. […] All sections of the hind paws and knee joints were examined, the highest score was recorded, with a total maximum score of 36 possible per mouse. The loss of the proteoglycans and cartilage degeneration was also scored in TB-stained sections on a graded scale of 0–3, as previously described ([Bernotiene et al., 2004]): 0—no cartilage loss; 1 – minimal chondrocytes and proteoglycan loss in superficial zone; 2—moderate chondrocytes and proteoglycan loss into middle zone but above tidemark; and 3—severe cartilage degeneration through tidemark, with the maximum score of 12 possible per mouse.

[4] = Cytotoxicity assay (CellTiter-Glo), FLS; assay type: cell-based, human; details: both sexes, human; concentrations up to 50 µM; read-out: Cytotoxic effect FLS IC50
Description: (§2) This study was approved by the Institutional Review Board of University of California, San Diego School of Medicine (La Jolla, CA, USA). Informed consent was obtained from all participants. Anonymous synovial tissue samples were obtained from six patients with RA at the time of total joint replacement (5 females, 1 male; age range, 44–72 years), as previously described ([Alvaro-Gracia et al., 1990]). The diagnosis of RA conformed to American College of Rheumatology 1987 revised criteria ([Arnett et al., 1988]). The synovium was minced and incubated with collagenase type VIII (0.5 mg/ml) (Sigma-Aldrich) in serum-free RPMI-1640 (Life Technologies, Grand Island, NY, USA) for 2 h at 37°C, filtered, extensively washed, and cultured in DMEM (Life Technologies) supplemented with 10% FBS (Gemini Bio Products, Calabasas, CA, USA), penicillin, streptomycin, gentamicin, and glutamine in a humidified 5% CO2 atmosphere. Cells were allowed to adhere overnight, nonadherent cells were removed, and adherent fibroblast-like synoviocytes (FLS) were split at 1:3 when 70%–80% confluent. FLS were used from passages 3 through 9, during which time they are a homogeneous population of cells (<1% CD11b positive, <1% phagocytic, and <1% FcγRII and FcγRIII receptor positive).
(§3) Cytotoxicity was analyzed using a CellTiter-Glo Luminescent Cell Viability Assay Kit (Promega), according to the manufacturer’s protocol. […] Following treatment, substrate was added to the cells, and the samples were analyzed with a Fluoroscan Ascent FL microplate reader.

FLS = experiment: Cytotoxicity assay (CellTiter-Glo), FLS; assay type: cell-based, human; details: during the 90-min period of the c-Jun assay
Description: as §2, §3

MMP-1 secretion by FLS = experiment: IL-1β-induced MMP-1 secretion by FLS (ELISA); assay type: cell-based; details: Homo sapiens; 30 min compound, then 5 ng/ml IL-1β, 24 h
Description: as §2, with “Cells were allowed to adhere overnight, nonadherent cells were removed, and adherent fibroblast-like synoviocytes (FLS) were split at 1:3 when 70%–80% confluent. FLS were used from passages 3 through 9, during which time they are a homogeneous population of cells (<1% CD11b positive, <1% phagocytic, and <1% FcγRII and FcγRIII receptor positive).” left out
FLS, HUVEC, SW982, and THP-1 cells were plated in 96 well plates (10^4 to 10^5 cells/well) for 48 h before treatment. […] The levels of MMP-1 and MMP-3 were determined in culture supernatants using commercially available ELISA kits according to the manufacturer’s instructions (R&D System, Minneapolis, MN, USA). IL-6 levels were also determined in the supernatants using a human IL-6 ELISA kit (BD Biosciences, San Jose, CA, USA).

MMP-3 secretion by HUVEC = experiment: IL-1β-induced MMP-3 secretion by HUVEC (ELISA); assay type: cell-based; details: Homo sapiens, 30 min compound, then 5 ng/ml IL-1β, 24 h
Protocol: as §1

SMILES | IC50 [1] [µM] | IC50 [2] [µM] | IC50 [3] [µM] | CIA joint histopathology (CIA in DBA1/J mice) | CIA symptoms (clinical score) (CIA in DBA1/J mice) | IC50 [4] [µM] | FLS viability (FLS) | IC50 (MMP-1 secretion by FLS) [µM] | IC50 (MMP-3 secretion by HUVEC) [µM]
O=C1c2ccccc2-n2c1nc1ccccc1c2=O [TRYP, indolo[2,1-b]quinazolin-6,12-dione] | 7.8 ± 2 | 13.8 ± 1.5 | 9.3 ± 2.7 | little cartilage erosion, synovial hyperplasia, or cellular infiltration | significant reductions in CIA symptoms | 16.7 ± 1.6 | neither TRYP nor TRYP-Ox affected FLS viability | 1.2 ± 0.4 | 12.8 ± 4.4
O=c1c2ccccc2nc2n1-c1ccccc1/C2=N/O [TRYP-Ox, tryptanthrin-6-oxime] | 2.6 ± 0.8 | > 50 | 0.3 ± 0.12 | little cartilage erosion, synovial hyperplasia, or cellular infiltration | significant reductions in CIA symptoms | > 50 | neither TRYP nor TRYP-Ox affected FLS viability | 0.7 ± 0.1 | 15.9 ± 5.8
